Reference: patent publication US12649727B2, “EFGR inhibitor, preparation method therefor and application thereof” (Abbisko Therapeutics Co., Ltd, priority 2020, dated 2026)

Key:
Format in all cases: cell-based
[1] = molecular target: Ba/F3 EGFR-V769_D770insASV (Homo sapiens, UniProt P00533, DUP767-769, cells depend on it); experiment: Proliferation experiment of Ba/F3 cell line, EGFR-V769_D770insASV (CellTiter-Glo); details: cultured for 72 hrs with compound, CTG analysis, read-out: Ba/F3 EGFR-V769_D770insASV IC50
Sequence of Ba/F3 EGFR-V769_D770insASV (P00533 with tags, fused parts or gaps DUP767-769): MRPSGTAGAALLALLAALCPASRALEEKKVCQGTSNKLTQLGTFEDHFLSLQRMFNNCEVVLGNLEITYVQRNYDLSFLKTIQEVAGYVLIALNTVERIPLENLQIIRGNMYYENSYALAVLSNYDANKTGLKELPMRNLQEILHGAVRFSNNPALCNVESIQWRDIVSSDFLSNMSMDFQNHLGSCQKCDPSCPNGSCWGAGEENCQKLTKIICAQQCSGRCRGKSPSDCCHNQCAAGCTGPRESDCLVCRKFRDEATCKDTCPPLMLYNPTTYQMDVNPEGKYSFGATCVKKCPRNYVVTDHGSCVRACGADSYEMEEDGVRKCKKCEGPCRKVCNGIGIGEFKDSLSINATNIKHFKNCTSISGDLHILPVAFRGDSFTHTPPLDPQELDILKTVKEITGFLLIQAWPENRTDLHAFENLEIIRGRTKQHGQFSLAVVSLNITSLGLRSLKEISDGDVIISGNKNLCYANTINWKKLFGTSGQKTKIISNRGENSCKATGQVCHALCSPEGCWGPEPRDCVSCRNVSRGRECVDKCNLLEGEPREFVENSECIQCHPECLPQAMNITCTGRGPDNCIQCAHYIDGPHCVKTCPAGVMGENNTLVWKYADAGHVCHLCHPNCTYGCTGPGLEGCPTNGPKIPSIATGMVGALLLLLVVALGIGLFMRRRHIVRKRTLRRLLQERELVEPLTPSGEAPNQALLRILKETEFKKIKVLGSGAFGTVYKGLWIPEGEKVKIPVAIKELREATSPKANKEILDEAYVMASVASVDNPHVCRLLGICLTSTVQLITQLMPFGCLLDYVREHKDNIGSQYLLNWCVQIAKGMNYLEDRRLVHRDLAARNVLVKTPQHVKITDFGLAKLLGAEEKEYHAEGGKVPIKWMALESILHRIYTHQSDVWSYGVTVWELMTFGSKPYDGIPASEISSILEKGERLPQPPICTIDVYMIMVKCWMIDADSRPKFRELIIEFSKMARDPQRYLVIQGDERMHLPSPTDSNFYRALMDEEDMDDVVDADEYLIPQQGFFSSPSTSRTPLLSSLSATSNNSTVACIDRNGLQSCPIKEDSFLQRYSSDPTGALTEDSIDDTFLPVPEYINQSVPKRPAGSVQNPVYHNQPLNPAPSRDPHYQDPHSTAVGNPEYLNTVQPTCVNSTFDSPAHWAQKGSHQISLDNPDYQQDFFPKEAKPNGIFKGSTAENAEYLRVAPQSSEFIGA
Description: (§1) Proliferation Experiment of Ba/F3 Cell Line
(§2) (I) Reagents and Materials
(§3) • Fetal bovine serum FBS (GBICO, Cat #10099-141); • CellTiter-Glo® luminescent cell viability assay kit (Promega, Cat #G7572); • Black transparent flat-bottom 96 well plate (Corning®, Cat #3603). (II) Instruments • SpectraMax multi-label microplate reader MD, 2104-0010A; • Carbon dioxide incubator, Thermo Scientific 3100 series; • Biological safety cabinet, Thermo Scientific, 1300 series model A2; • Inverted microscope, Olympus, CKX41SF; • Siemens refrigerator KK25E76TI. (III) Cell Lines and Culture Conditions
(§4) (IV) Experimental Procedures 1. Cell Culture and Inoculation: • (1) Cells in the logarithmic growth phase were harvested and counted using a […]. Cell viability was detected by Trypan Blue Dye Exclusion Method to ensure cell viability above 90%. • (2) The cell concentration was adjusted to reach a desired final density; 90 μL of cell suspension was added to the 96-well plate. • (3) The cells were incubated overnight in the 96-well plate at 37° C., 5% CO2 and at 95% humidity.
(§5) 2. T0 Reference Data: • (1) 10 μL PBS was added to each well of the TO plate containing the cells. • (2) The CTG reagent was thawed and the cell plate was equilibrated to room temperature for 30 min. • (3) An equal volume of CTG solution was added to each well. • (4) The cells were lysed by shaking on an orbital shaker for 5 min. • (5) The cell plate was left at room temperature for 20 min to stabilize the luminescence signal. • (6) The fluorescence signal values of TO were read. 3. Dilution and Addition of Compounds • (1) According to the compound information table, a corresponding volume of DMSO was added to the corresponding compound powder to prepare a 10 mM stock solution. • (2) A 1000-fold, 3.16-fold-diluted compound solution was prepared. • (3) The 1000× diluted compound solution was diluted 100-fold with PBS to prepare a 10-fold compound solution with a maximum concentration of […], including 9 concentrations, with 3.16-fold dilution, and 10 μL of the medicament solution was added to each well of the 96-well plate to seed the cells. Triplicate wells were set for each compound concentration, with a final concentration of DMSO being 0.1%. • (4) The cells were placed in the 96-well plate filled with the medicament at 37° C., 5% CO2 and at 95% humidity, and cultured for 72 hrs before CTG analysis. 4. Fluorescence Signal Reading • (1) The CTG reagent was thawed and the cell plate was equilibrated to room temperature for 30 min. • (2) An equal volume of CTG solution was added to each well. • (3) The cells were lysed by shaking on an orbital shaker for 5 min. • (4) The cell plate was left at room temperature for 20 min to stabilize the fluorescence signal. • (5) The fluorescence values were read. 5. Data Processing
(§6) Data were analyzed using GraphPad Prism 7.0 software and fitted data were regressed using non-linear S-curves to obtain dose-response curves from which IC50 values (in nM) were calculated.

[2] = tested on: A431 (EGFR-WT); experiment: Proliferation experiment, A431 cell line (CellTiter-Glo); details: Homo sapiens, A-431; A431 cells, cultured for 72 hrs with compound, CTG analysis
Description: [The procedure below names another cell line; the source lists this cell line under the same test.] as §1, §2, §3, §4, §5, §6

[3] = molecular target: Ba/F3 EGFR-D770-N771ins_SVD (Homo sapiens, UniProt P00533, DUP768-770, cells depend on it); experiment: Proliferation experiment of Ba/F3 cell line, EGFR-D770-N771ins_SVD (CellTiter-Glo); details: cultured for 72 hrs with compound, CTG analysis, read-out: Ba/F3 EGFR-D770-N771ins_SVD IC50
Sequence of Ba/F3 EGFR-D770-N771ins_SVD (P00533 with tags, fused parts or gaps DUP768-770): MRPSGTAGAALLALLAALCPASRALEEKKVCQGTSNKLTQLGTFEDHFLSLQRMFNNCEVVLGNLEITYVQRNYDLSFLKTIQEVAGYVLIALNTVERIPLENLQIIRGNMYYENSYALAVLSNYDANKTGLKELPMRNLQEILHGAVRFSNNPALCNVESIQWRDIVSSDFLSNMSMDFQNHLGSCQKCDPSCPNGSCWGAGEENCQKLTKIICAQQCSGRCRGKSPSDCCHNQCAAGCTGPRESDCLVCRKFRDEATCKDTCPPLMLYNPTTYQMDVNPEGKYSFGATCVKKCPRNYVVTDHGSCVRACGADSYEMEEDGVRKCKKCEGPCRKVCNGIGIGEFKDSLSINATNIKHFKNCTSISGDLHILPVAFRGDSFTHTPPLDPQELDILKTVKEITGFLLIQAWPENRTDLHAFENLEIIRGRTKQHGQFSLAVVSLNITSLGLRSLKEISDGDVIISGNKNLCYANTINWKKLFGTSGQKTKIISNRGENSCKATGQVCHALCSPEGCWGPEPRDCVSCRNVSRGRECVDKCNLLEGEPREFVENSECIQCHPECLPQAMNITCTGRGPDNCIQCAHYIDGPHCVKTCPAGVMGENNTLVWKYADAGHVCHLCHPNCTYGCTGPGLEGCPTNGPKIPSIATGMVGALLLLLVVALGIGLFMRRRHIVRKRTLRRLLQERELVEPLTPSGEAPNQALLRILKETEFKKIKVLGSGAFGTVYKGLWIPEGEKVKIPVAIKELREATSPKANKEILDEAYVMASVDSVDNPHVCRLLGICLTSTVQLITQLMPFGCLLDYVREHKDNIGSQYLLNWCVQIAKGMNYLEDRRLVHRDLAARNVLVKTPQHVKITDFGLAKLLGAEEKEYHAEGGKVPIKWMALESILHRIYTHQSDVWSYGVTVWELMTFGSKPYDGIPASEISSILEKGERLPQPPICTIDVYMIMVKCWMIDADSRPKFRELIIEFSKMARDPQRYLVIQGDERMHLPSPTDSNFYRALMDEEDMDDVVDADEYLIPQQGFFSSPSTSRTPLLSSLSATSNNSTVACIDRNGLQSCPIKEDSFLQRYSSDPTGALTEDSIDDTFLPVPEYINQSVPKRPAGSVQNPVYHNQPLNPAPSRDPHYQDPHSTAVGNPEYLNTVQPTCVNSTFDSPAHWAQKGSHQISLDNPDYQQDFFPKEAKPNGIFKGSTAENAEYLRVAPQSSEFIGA
Description: as §1, §2, §3, §4, §5, §6

Structure (SMILES) | GI50 [1] [nM] | IC50 [2] [nM] | GI50 [3] [nM]
C=CC(=O)Nc1cc2c(Nc3cncc(-c4c(F)cccc4F)c3)ncnc2cc1OCCCN1CCN(C)CC1 [Example 62, N-(4-((5-(2,6-difluorophenyl)pyridin-3-yl)amino)-7-(3-(4-methylpiperazin-1-yl)propoxy)quinazolin-6-yl)acrylamide] | 23.6 | 348 | 11
C=CC(=O)Nc1cc2c(Nc3ccc(F)c(-c4ccccn4)c3)ncnc2cc1OCCCN1CCOCC1 [Example 49, N-(4-((4-fluoro-3-(pyridin-2-yl)phenyl)amino)-7-(3-morpholinopropoxy)quinazolin-6-yl)acrylamide] | 59.1 | 377 | 28.6
C=CC(=O)Nc1cc2c(Nc3cncc(-c4ccccc4F)c3)ncnc2cc1O[C@@H]1CCN(C)C1 [Example 63, (R)-N-(4-((5-(2-fluorophenyl)pyridin-3-yl)amino)-7-((1-methylpyrrolidin-3-yl)oxy)quinazolin-6-yl)acrylamide] | 38.1 | 972 | 14.1
C=CC(=O)Nc1cc2c(Nc3cccc(-c4c(F)cccc4F)c3)ncnc2cc1OCCCN1CCN(C)C(=O)C1 [Example 32, N-(4-((2′,6′-difluoro-[1,1′-biphenyl]-3-yl)amino)-7-(3-(4-methyl-3-oxopiperazin-1-yl)propoxy)quinazolin-6-yl)acrylamide] | 86.3 | 205 | 35.9
C=CC(=O)Nc1cc2c(Nc3ccc(F)c(-c4ccccc4)c3)ncnc2cc1OCCCN1CCOCC1 [Example 47, N-(4-((6-fluoro-[1,1′-biphenyl]-3-yl)amino)-7-(3-morpholinopropoxy)quinazolin-6-yl)acrylamide] | 41.4 | 190 | 29.5
C=CC(=O)Nc1cc2c(Nc3cccc(-c4c(F)cccc4F)c3)ncnc2cc1OCCCN1CCOCC1 [Example 27, N-(4-((2′,6′-difluoro-[1,1′-biphenyl]-3-yl)amino)-7-(3-morpholinopropoxy)quinazolin-6-yl)acrylamide] | 44.3 | 204 | 15.2
C=CC(=O)Nc1cc2c(Nc3cccc(-c4c(F)cccc4F)c3)ncnc2cc1OCCN1CCOCC1 [Example 26, N-(4-((2′,6′-difluoro-[1,1′-biphenyl]-3-yl)amino)-7-(2-morpholinoethoxy)quinazolin-6-yl)acrylamide] | 97.4 | 33.4 | 52.1
C=CC(=O)Nc1cc2c(Nc3ccc(F)c(-c4ccccn4)c3)ncnc2cc1OCCCN1CCN(C)CC1 [Example 50, N-(4-((4-fluoro-3-(pyridin-2-yl)phenyl)amino)-7-(3-(4-methylpiperazin-1-yl)propoxy)quinazolin-6-yl)acrylamide] | 37.9 | 48 | 23.3
C=CC(=O)Nc1cc2c(Nc3cccc(-c4c(F)cccc4F)c3)ncnc2cc1OCCCN1CCN(C)CC1=O [Example 33, N-(4-((2′,6′-difluoro-[1,1′-biphenyl]-3-yl)amino)-7-(3-(4-methyl-2-oxopiperazin-1-yl)propoxy)quinazolin-6-yl)acrylamide] | 68.3 | 458 | 38.3
C=CC(=O)Nc1cc2c(Nc3cccc(-n4nccn4)c3)ncnc2cc1OCCN1CCOCC1 [Example 54, N-(4-((3-(2H-1,2,3-triazol-2-yl)phenyl)amino)-7-(2-morpholinoethoxy)quinazolin-6-yl)acrylamide] | 107 | – | 67.9
C=CC(=O)Nc1cc2c(Nc3cccc(-c4ccc(F)cc4F)c3)ncnc2cc1OCCN1CCN(C)CC1 [Example 4, N-(4-((2′,4′-difluoro-[1,1′-biphenyl]-3-yl)amino)-7-(2-(4-methylpiperazin-1-yl)ethoxy)quinazolin-6-yl)acrylamide] | 175 | – | 52.5
C=CC(=O)Nc1cc2c(Nc3cccc(-n4nccn4)c3)ncnc2cc1OCCCN1CCOCC1 [Example 55, N-(4-((3-(2H-1,2,3-triazol-2-yl)phenyl)amino)-7-(3-morpholinopropoxy)quinazolin-6-yl)acrylamide] | 34.6 | – | 15
C=CC(=O)Nc1cc2c(Nc3cccc(-n4cccn4)c3)ncnc2cc1OCCN1CCOCC1 [Example 51, N-(4-((3-(1H-pyrazol-1-yl)phenyl)amino)-7-(2-morpholinoethoxy)quinazolin-6-yl)acrylamide] | 89.9 | – | 40.6

Now those with a lower GI50 [1], led by results:

GI50 [1] [nM] | IC50 [2] [nM] | GI50 [3] [nM] | Structure (SMILES)
20.3 | 223 | 13 | C=CC(=O)Nc1cc2c(Nc3cccc(-c4c(F)cccc4F)c3)ncnc2cc1OCCCN1CCN(C)CC1 [Example 5, N-(4-((2′,6′-difluoro-[1,1′-biphenyl]-3-yl)amino)-7-(3-(4-methylpiperazin-1-yl)propoxy)quinazolin-6-yl)acrylamide]
17.9 | – | 10.4 | C=CC(=O)Nc1cc2c(Nc3cccc(-n4cccn4)c3)ncnc2cc1OCCCN1CCOCC1 [Example 52, N-(4-((3-(1H-pyrazol-1-yl)phenyl)amino)-7-(3-morpholinopropoxy)quinazolin-6-yl)acrylamide]
16.5 | 44.1 | 6.5 | C=C(F)C(=O)Nc1cc2c(Nc3ccnc(-c4ccccc4F)c3)ncnc2cc1O[C@@H]1CCN(C2CCOCC2)C1 [Example 121, (R)-2-fluoro-N-(4-((2-(2-fluorophenyl)pyridin-4-yl)amino)-7-((1-(tetrahydro-2H-pyran-4-yl)pyrrolidin-3-yl)oxy)quinazolin-6-yl)acrylamide]
11.2 | 226 | 4.2 | C=CC(=O)Nc1cc2c(Nc3cncc(-c4ccccc4F)c3)ncnc2cc1OCCCN1CCN(C)CC1 [Example 59, N-(4-((5-(2-fluorophenyl)pyridin-3-yl)amino)-7-(3-(4-methylpiperazin-1-yl)propoxy)quinazolin-6-yl)acrylamide]
8.3 | 1820 | 3.3 | C=C(F)C(=O)Nc1cc2c(Nc3ccnc(-c4ccccc4F)c3)ncnc2cc1N1CCOCC1 [Example 95, 2-fluoro-N-(4-((2-(2-fluorophenyl)pyridin-4-yl)amino)-7-morpholinoquinazolin-6-yl)acrylamide]
7.9 | 289 | 4.1 | C=CC(=O)Nc1cc2c(Nc3ccnc(-c4ccccc4F)c3)ncnc2cc1O[C@@H]1CCN(C)C1 [Example 65, (R)—N-(4-((2-(2-fluorophenyl)pyridin-4-yl)amino)-7-((1-methylpyrrolidin-3-yl)oxy)quinazolin-6-yl)acrylamide]
5 | 81 | 3.1 | C=CC(=O)Nc1cc2c(Nc3ccnc(-c4ccccc4F)c3)ncnc2cc1OCCCN1CCN(C)CC1 [Example 70, N-(4-((2-(2-fluorophenyl)pyridin-4-yl)amino)-7-(3-(4-methylpiperazin-1-yl)propoxy)quinazolin-6-yl)acrylamide]
4.4 | 136 | 3.5 | C=CC(=O)Nc1cc2c(Nc3ccnc(-c4c(F)cccc4F)c3)ncnc2cc1OCCCN1CCN(C)CC1 [Example 74, N-(4-((2-(2,6-difluorophenyl)pyridin-4-yl)amino)-7-(3-(4-methylpiperazin-1-yl)propoxy)quinazolin-6-yl)acrylamide]
2.4 | 20.5 | 1.6 | C=CC(=O)Nc1cc2c(Nc3ccnc(-c4ccccc4F)c3)ncnc2cc1OCCCN1CCN(CCOC)CC1 [Example 123, N-(4-((2-(2-fluorophenyl)pyridin-4-yl)amino)-7-(3-(4-(2-methoxyethyl)piperazin-1-yl)propoxy)quinazolin-6-yl)acrylamide]
